Experimental data as given in patent publication US20080254983A1, “Herbicide Composition” (NUFARM AUSTRALIA LIMITED, priority 2005, published 2008).

System: Annual Ryegrass (LOLRI)
Assay: Field trials throughout Australia, annual ryegrass (LOLRI) counts
Type: in vivo
Conditions: for % control: from mean vs untreated control; for Mean Plants/m2: mean of the seven trials
Protocol: A series of field trials were conducted throughout Australia to assess the performance of Example 5 composition (400 g/L trifluralin+117 g/L cinmethylin+UAN compatibiliser) versus the performance of either trifluralin or cinmethylin applied as standalone treatments.
All trials were sown under a knifepoint/reduced tillage seeding systems with trial design and management reflecting common district and grower practice. Rates of herbicide application were designed to allow comparison of the co-mixture and solvency package against the relative merits of either active ingredient applied alone in their currently available commercial formulation package (see table below).
Products were applied prior to sowing and were applied in water with industry accepted application equipment and spray nozzles.

## CCCN(CCC)c1c([N+](=O)[O-])cc(C(F)(F)F)cc1[N+](=O)[O-] [Trifluralin, trifluralin]
720 gai/ha, Vic Lentils 81-DAT
  LOLRI Plants/m2: 26 Plants/m2
720 gai/ha, Vic Lentils H02 51-DAT
  LOLRI Plants/m2: 21 Plants/m2
720 gai/ha, Vic Wheat 49-DAT
  LOLRI Plants/m2: 105 Plants/m2
720 gai/ha, Vic Wheat H03 79-DAT
  LOLRI Plants/m2: 168 Plants/m2
720 gai/ha, WA Canola W06-197 27-DAT
  LOLRI Plants/m2: 264 Plants/m2
720 gai/ha, WA Lupins W06-200 19-DAT
  LOLRI Plants/m2: 224 Plants/m2
720 gai/ha, WA Wheat W06-196 27-DAT
  LOLRI Plants/m2: 191 Plants/m2
720 gai/ha
  % control: 63%
  Mean Plants/m2: 143 Plants/m2
960 gai/ha, Vic Lentils 81-DAT
  LOLRI Plants/m2: 22 Plants/m2
960 gai/ha, Vic Lentils H02 51-DAT
  LOLRI Plants/m2: 19 Plants/m2
960 gai/ha, Vic Wheat 49-DAT
  LOLRI Plants/m2: 10 Plants/m2
960 gai/ha, Vic Wheat H03 79-DAT
  LOLRI Plants/m2: 22 Plants/m2
960 gai/ha, WA Canola W06-197 27-DAT
  LOLRI Plants/m2: 208 Plants/m2
960 gai/ha, WA Lupins W06-200 19-DAT
  LOLRI Plants/m2: 169 Plants/m2
960 gai/ha, WA Wheat W06-196 27-DAT
  LOLRI Plants/m2: 207 Plants/m2
960 gai/ha
  % control: 76%
  Mean Plants/m2: 94 Plants/m2
1440 gai/ha, Vic Lentils 81-DAT
  LOLRI Plants/m2: 23 Plants/m2
1440 gai/ha, Vic Lentils H02 51-DAT
  LOLRI Plants/m2: 14 Plants/m2
1440 gai/ha, Vic Wheat 49-DAT
  LOLRI Plants/m2: 29 Plants/m2
1440 gai/ha, Vic Wheat H03 79-DAT
  LOLRI Plants/m2: 33 Plants/m2
1440 gai/ha, WA Canola W06-197 27-DAT
  LOLRI Plants/m2: 156 Plants/m2
1440 gai/ha, WA Lupins W06-200 19-DAT
  LOLRI Plants/m2: 184 Plants/m2
1440 gai/ha, WA Wheat W06-196 27-DAT
  LOLRI Plants/m2: 135 Plants/m2
1440 gai/ha
  % control: 79%
  Mean Plants/m2: 82 Plants/m2

## Cc1ccccc1CO[C@@H]1C[C@@]2(C(C)C)CC[C@]1(C)O2 (racemic) [Cinmethylin]
100 gai/ha, Vic Lentils 81-DAT
  LOLRI Plants/m2: 18 Plants/m2
100 gai/ha, Vic Lentils H02 51-DAT
  LOLRI Plants/m2: 15 Plants/m2
100 gai/ha, Vic Wheat 49-DAT
  LOLRI Plants/m2: 69 Plants/m2
100 gai/ha, Vic Wheat H03 79-DAT
  LOLRI Plants/m2: 136 Plants/m2
100 gai/ha, WA Canola W06-197 27-DAT
  LOLRI Plants/m2: 419 Plants/m2
100 gai/ha, WA Lupins W06-200 19-DAT
  LOLRI Plants/m2: 503 Plants/m2
100 gai/ha, WA Wheat W06-196 27-DAT
  LOLRI Plants/m2: 300 Plants/m2
100 gai/ha
  % control: 46%
  Mean Plants/m2: 208 Plants/m2
200 gai/ha, Vic Lentils 81-DAT
  LOLRI Plants/m2: 10 Plants/m2
200 gai/ha, Vic Lentils H02 51-DAT
  LOLRI Plants/m2: 8 Plants/m2
200 gai/ha, Vic Wheat 49-DAT
  LOLRI Plants/m2: 67 Plants/m2
200 gai/ha, Vic Wheat H03 79-DAT
  LOLRI Plants/m2: 78 Plants/m2
200 gai/ha, WA Canola W06-197 27-DAT
  LOLRI Plants/m2: 307 Plants/m2
200 gai/ha, WA Lupins W06-200 19-DAT
  LOLRI Plants/m2: 235 Plants/m2
200 gai/ha, WA Wheat W06-196 27-DAT
  LOLRI Plants/m2: 264 Plants/m2
200 gai/ha
  % control: 64%
  Mean Plants/m2: 138 Plants/m2
400 gai/ha, Vic Lentils 81-DAT
  LOLRI Plants/m2: 14 Plants/m2
400 gai/ha, Vic Lentils H02 51-DAT
  LOLRI Plants/m2: 10 Plants/m2
400 gai/ha, Vic Wheat 49-DAT
  LOLRI Plants/m2: 22 Plants/m2
400 gai/ha, Vic Wheat H03 79-DAT
  LOLRI Plants/m2: 19 Plants/m2
400 gai/ha, WA Canola W06-197 27-DAT
  LOLRI Plants/m2: 324 Plants/m2
400 gai/ha, WA Lupins W06-200 19-DAT
  LOLRI Plants/m2: 124 Plants/m2
400 gai/ha, WA Wheat W06-196 27-DAT
  LOLRI Plants/m2: 229 Plants/m2
400 gai/ha
  % control: 73%
  Mean Plants/m2: 106 Plants/m2
